Data: ChEMBL document CHEMBL1201862, “PubChem BioAssay data set” (2004)
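How tested: cells in 96-well plates exposed to compound for 48 hours at five concentrations. Here, GI50 denotes the concentration required for 50% inhibition of growth.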 The source made the active and inactive calls. No stated cut-off is given here; in the data, active = GI50 up to about 1.1 µM and inactive = higher.

Assays:
Test in all cases: NCI tumour cell line growth inhibition, 48 h
786-0 = test system: 786-0
A498 = test system: A498
IGROV-1 = test system: IGROV-1
M19-MEL = test system: M19-MEL
RXF 393 = test system: RXF 393
SF-539 = test system: SF-539
SN12C = test system: SN12C
U-251 = test system: U-251
UACC-257 = test system: UACC-257
BT-549 = test system: BT-549
DU-145 = test system: DU-145
Hs-578T = test system: Hs-578T
MCF7 = test system: MCF7
MDA-MB-231 = test system: MDA-MB-231
MDA-MB-435 = test system: MDA-MB-435
MDA-N = test system: MDA-N
NCI/ADR-RES = test system: NCI/ADR-RES
OVCAR-4 = test system: OVCAR-4
PC-3 = test system: PC-3
T47D = test system: T47D

| SMILES | GI50 (786-0) | GI50 (A498) | GI50 (IGROV-1) | GI50 (M19-MEL) | GI50 (RXF 393) | GI50 (SF-539) | GI50 (SN12C) | GI50 (U-251) | GI50 (UACC-257) | GI50 (BT-549) | GI50 (DU-145) | GI50 (Hs-578T) | GI50 (MCF7) | GI50 (MDA-MB-231) | GI50 (MDA-MB-435) | GI50 (MDA-N) | GI50 (NCI/ADR-RES) | GI50 (OVCAR-4) | GI50 (PC-3) | GI50 (T47D) |
| --- | --- | --- | --- | --- | --- | --- | --- | --- | --- | --- | --- | --- | --- | --- | --- | --- | --- | --- | --- | --- |
| NC(=O)Cn1c(=O)[nH]c(=O)c2[nH]cnc21 | > 100 µM (inactive) | > 100 µM (inactive) | > 100 µM (inactive) | > 100 µM (inactive) | > 100 µM (inactive) | > 100 µM (inactive) | > 100 µM (inactive) | > 100 µM (inactive) | > 100 µM (inactive) | – | – | – | – | – | – | – | – | – | – | – |
| COc1nc(C#CCC(C)O)nc(OC)n1 (centres undefined) | – | 30.5 µM (inactive) | 15.7 µM (inactive) | – | 7.38 µM (inactive) | 26 µM (inactive) | 19.5 µM (inactive) | 29.6 µM (inactive) | 30.9 µM (inactive) | 18.4 µM (inactive) | 22.9 µM (inactive) | 25.7 µM (inactive) | 13.1 µM (inactive) | 21.2 µM (inactive) | 17.9 µM (inactive) | 30.6 µM (inactive) | 21 µM (inactive) | 18.8 µM (inactive) | 22.6 µM (inactive) | 47.8 µM (inactive) |
| Cc1cc(C)nc(NS(=O)(=O)c2ccc(NNC(=O)c3cccc4c(=O)c5ccccc5[nH]c34)cc2)n1 | > 100 µM (inactive) | – | 36.7 µM (inactive) | – | 36 µM (inactive) | > 100 µM (inactive) | 96.6 µM (inactive) | 25.2 µM (inactive) | > 100 µM (inactive) | 53.5 µM (inactive) | > 100 µM (inactive) | 61.7 µM (inactive) | > 100 µM (inactive) | 37.6 µM (inactive) | 61.8 µM (inactive) | 75.9 µM (inactive) | > 100 µM (inactive) | 72.3 µM (inactive) | 38.4 µM (inactive) | 26.1 µM (inactive) |
| COC(=O)C(C(=O)C(=O)Nc1nnc(S)[nH]1)c1csc(-n2nc(-c3ccccc3)cc2-c2ccccc2)n1 (centres undefined) | > 100 µM (inactive) | > 100 µM (inactive) | > 100 µM (inactive) | > 100 µM (inactive) | > 100 µM (inactive) | – | > 100 µM (inactive) | > 100 µM (inactive) | > 100 µM (inactive) | – | – | – | – | – | – | – | – | > 100 µM (inactive) | – | – |
| Cc1cccc(NC(=O)/C(=N\N)C(c2cnc3ccc([N+](=O)[O-])cc3n2)[N+](=O)[O-])c1C (centres undefined) | > 100 µM (inactive) | – | > 100 µM (inactive) | > 100 µM (inactive) | > 100 µM (inactive) | > 100 µM (inactive) | > 100 µM (inactive) | – | > 100 µM (inactive) | – | – | – | – | – | – | – | – | > 100 µM (inactive) | – | – |
| O=C(O)CNC(=O)c1ccccc1O [SALICYLURIC ACID] | > 100 µM (inactive) | > 100 µM (inactive) | > 100 µM (inactive) | – | > 100 µM (inactive) | > 100 µM (inactive) | > 100 µM (inactive) | > 100 µM (inactive) | > 100 µM (inactive) | > 100 µM (inactive) | > 100 µM (inactive) | > 100 µM (inactive) | > 100 µM (inactive) | > 100 µM (inactive) | > 100 µM (inactive) | > 100 µM (inactive) | > 100 µM (inactive) | > 100 µM (inactive) | > 100 µM (inactive) | > 100 µM (inactive) |
| C=C1[C@H](OC(C)=O)[C@H]2[C@@H](OC(C)=O)[C@@H](C)C[C@]2(C)C(=O)[C@H](C)/C=C/C(C)(C)C(=O)[C@H](OCC(C)C)[C@H]1OC(C)=O | > 25 µM (inactive) | > 25 µM (inactive) | > 25 µM (inactive) | – | > 25 µM (inactive) | 19.6 µM (inactive) | > 25 µM (inactive) | > 25 µM (inactive) | > 25 µM (inactive) | > 25 µM (inactive) | > 25 µM (inactive) | > 25 µM (inactive) | > 25 µM (inactive) | > 25 µM (inactive) | 20.7 µM (inactive) | 14.4 µM (inactive) | > 25 µM (inactive) | > 25 µM (inactive) | > 25 µM (inactive) | > 25 µM (inactive) |
| Cc1ccc(N2C(=O)C3CSCN3C2=O)cc1 (centres undefined) | – | > 100 µM (inactive) | > 100 µM (inactive) | > 100 µM (inactive) | – | > 100 µM (inactive) | > 100 µM (inactive) | > 100 µM (inactive) | > 100 µM (inactive) | – | – | – | > 100 µM (inactive) | – | – | – | > 100 µM (inactive) | > 100 µM (inactive) | – | – |
| COc1ccc(/C(Cl)=C(\C=O)c2ccc(F)cc2)cc1OC | – | 20 µM (inactive) | 31.9 µM (inactive) | 21 µM (inactive) | – | 23 µM (inactive) | 15.9 µM (inactive) | 15.6 µM (inactive) | – | – | – | – | – | – | – | – | – | – | – | – |
| CCOC(=O)C(C)NC(=O)NC12CC3CC(CC(F)(C3)C1)C2 (centres undefined) | > 100 µM (inactive) | > 100 µM (inactive) | > 100 µM (inactive) | 61.1 µM (inactive) | 27.5 µM (inactive) | > 100 µM (inactive) | – | > 100 µM (inactive) | 70.1 µM (inactive) | – | – | – | – | – | – | – | – | – | – | – |
| COc1ccc2nc(-c3ccc(O)cc3)ccc2c1 | > 100 µM (inactive) | – | > 100 µM (inactive) | > 100 µM (inactive) | > 100 µM (inactive) | > 100 µM (inactive) | > 100 µM (inactive) | – | > 100 µM (inactive) | – | – | – | – | – | – | – | – | > 100 µM (inactive) | – | – |
| O=C(NC1C=Nc2ccc([N+](=O)[O-])cc2NC1=O)c1cc(Cl)cc([N+](=O)[O-])c1 (centres undefined) | – | > 100 µM (inactive) | > 100 µM (inactive) | > 100 µM (inactive) | > 100 µM (inactive) | > 100 µM (inactive) | > 100 µM (inactive) | > 100 µM (inactive) | > 100 µM (inactive) | – | – | – | – | – | – | – | – | > 100 µM (inactive) | – | – |
| CC(=O)OC1CCC2(C)C3CCC4(C)C(c5ccc(=O)oc5)CC5OC54C3CCC2(O)C1 (centres undefined) | – | 1.55 µM (inactive) | 2.61 µM (inactive) | 2.21 µM (inactive) | 0.479 µM (active) | 0.75 µM (active) | 0.617 µM (active) | 2.21 µM (inactive) | 3.04 µM (inactive) | – | – | – | 2.31 µM (inactive) | – | – | – | 1.08 µM (active) | 2.3 µM (inactive) | – | – |
| Cc1cn(C2CC(N)C(C(=O)NCC(=O)O)O2)c(=O)[nH]c1=O (centres undefined) | – | 50.6 µM (inactive) | > 100 µM (inactive) | – | > 100 µM (inactive) | – | > 100 µM (inactive) | > 100 µM (inactive) | – | > 100 µM (inactive) | > 100 µM (inactive) | > 100 µM (inactive) | > 100 µM (inactive) | > 100 µM (inactive) | > 100 µM (inactive) | > 100 µM (inactive) | > 100 µM (inactive) | > 100 µM (inactive) | > 100 µM (inactive) | > 100 µM (inactive) |
| CCOC(=O)C(NC(=O)c1ccccc1)(c1ccc(S(=O)(=O)Nc2onc(C)c2C)cc1)C(F)(F)F (centres undefined) | > 100 µM (inactive) | – | > 100 µM (inactive) | – | > 100 µM (inactive) | > 100 µM (inactive) | > 100 µM (inactive) | > 100 µM (inactive) | > 100 µM (inactive) | > 100 µM (inactive) | > 100 µM (inactive) | > 100 µM (inactive) | > 100 µM (inactive) | > 100 µM (inactive) | > 100 µM (inactive) | > 100 µM (inactive) | > 100 µM (inactive) | > 100 µM (inactive) | > 100 µM (inactive) | > 100 µM (inactive) |
| N#CN=C(NCCO)NCCO | – | 92.7 µM (inactive) | > 100 µM (inactive) | > 100 µM (inactive) | – | > 100 µM (inactive) | > 100 µM (inactive) | > 100 µM (inactive) | > 100 µM (inactive) | – | – | – | – | – | – | – | – | > 100 µM (inactive) | – | – |
